Values joined by “and” are separate entries in the source; they are usually repeats but may differ in a detail not shown here. Equal entries are not always repeated. Toxic doses and inconclusive results are not listed.
System: P388 leukemia ip, CD2F1 mice, survival T/C
Test: NCI In Vivo Anticancer Drug Screen. Data for tumor model P388 Leukemia (intraperitoneal) in CD2F1 (CDF1) mice
Conditions: endpoint: median survival time, higher = longer survival
How it was run: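 Mice carrying the transplanted tumor received test compound or vehicle. Survival was recorded in each group, and the value is the treated-group measurement divided by that of the vehicle-treated control group.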

[1] = dose: 60.0 mg/kg/injection, schedule: Q01DX005 (ip), vehicle: saline with Tween-80
[2] = dose: 120.0 mg/kg/injection, schedule: Q01DX005 (ip), vehicle: saline with Tween-80
[3] = dose: 240.0 mg/kg/injection, schedule: Q01DX005 (ip), vehicle: saline with Tween-80
[4] = dose: 50.0 mg/kg/injection, schedule: Q01DX009 (ip), vehicle: Klucel (hydroxypropylcellulose) (HPC)
[5] = dose: 50.0 mg/kg/injection, schedule: Q01DX005 (ip), vehicle: Klucel (hydroxypropylcellulose) (HPC)
[6] = dose: 100.0 mg/kg/injection, schedule: Q01DX005 (ip), vehicle: Klucel (hydroxypropylcellulose) (HPC)
[7] = dose: 200.0 mg/kg/injection, schedule: Q01DX005 (ip), vehicle: Klucel (hydroxypropylcellulose) (HPC)

## Cc1ccc(NC(=S)NNC(=O)CN2C(=O)c3ccccc3C2=O)cc1
dose: 12.5 mg/kg/injection, schedule: Q01DX001 (ip), vehicle: Klucel (hydroxypropylcellulose) (HPC)
  T/C: 93 % of control
dose: 25.0 mg/kg/injection, schedule: Q01DX001 (ip), vehicle: Klucel (hydroxypropylcellulose) (HPC)
  T/C: 93 % of control
dose: 50.0 mg/kg/injection, schedule: Q01DX001 (ip), vehicle: Klucel (hydroxypropylcellulose) (HPC)
  T/C: 89 % of control and 90 % of control

## COC12C=C(C(C)(C)C)C(CC1)C1C(=O)c3c(OC(=O)OCc4ccc([N+](=O)[O-])cc4)ccc(O)c3C(=O)C12 (stereo not given)
dose: 30.0 mg/kg/injection, schedule: Q01DX005 (ip), vehicle: saline with Tween-80
  T/C: 91 % of control
[1]
  T/C: 86 % of control and 94 % of control
[2]
  T/C: 91 % of control and 92 % of control
[3]
  T/C: 100 % of control

## CCNC1=C(C(=O)OCC)C(=O)CO1
[1]
  T/C: 100 % of control
[2]
  T/C: 100 % of control
[3]
  T/C: 99 % of control

## NNC(=O)c1ccc(NC(=O)CSc2nc3ccccc3s2)cc1
dose: 12.5 mg/kg/injection, schedule: Q01DX009 (ip), vehicle: Klucel (hydroxypropylcellulose) (HPC)
  T/C: 99 % of control
dose: 25.0 mg/kg/injection, schedule: Q01DX009 (ip), vehicle: Klucel (hydroxypropylcellulose) (HPC)
  T/C: 102 % of control
[4]
  T/C: 101 % of control

## CN(C)c1cc(N(C)C)c2cc(-c3ccccc3)sc2n1
[4]
  T/C: 98 % of control
dose: 100.0 mg/kg/injection, schedule: Q01DX009 (ip), vehicle: Klucel (hydroxypropylcellulose) (HPC)
  T/C: 103 % of control
dose: 200.0 mg/kg/injection, schedule: Q01DX009 (ip), vehicle: Klucel (hydroxypropylcellulose) (HPC)
  T/C: 96 % of control

## CN(C)NCCCCCNN(C)C
[5]
  T/C: 100 % of control
[6]
  T/C: 102 % of control
[7]
  T/C: 102 % of control

## CC1=CCC(C#N)N(C)C1c1ccccc1 (stereo not given)
[5]
  T/C: 108 % of control
[6]
  T/C: 97 % of control
[7]
  T/C: 99 % of control

## NC(CSSCC(NC(=O)c1ccccc1)C(=O)O)C(=O)O (stereo not given)
[5]
  T/C: 103 % of control and 99 % of control
[6]
  T/C: 106 % of control and 96 % of control
[7]
  T/C: 100 % of control and 101 % of control and 111 % of control

## O=NNc1nc2ncccc2cc1-c1ccccc1Cl
dose: 3.12 mg/kg/injection, schedule: Q01DX009 (ip), vehicle: water
  T/C: 110 % of control and 111 % of control and 124 % of control
dose: 6.25 mg/kg/injection, schedule: Q01DX009 (ip), vehicle: water
  T/C: 111 % of control
dose: 12.5 mg/kg/injection, schedule: Q01DX009 (ip), vehicle: water
  T/C: 108 % of control and 113 % of control
dose: 25.0 mg/kg/injection, schedule: Q01DX009 (ip), vehicle: water
  T/C: 94 % of control and 95 % of control

## C[n+]1ccc(-c2cc[n+](C)cc2)cc1
dose: 0.39 mg/kg/injection, schedule: Q01DX009 (ip), vehicle: saline
  T/C: 98 % of control
dose: 0.78 mg/kg/injection, schedule: Q01DX009 (ip), vehicle: saline
  T/C: 109 % of control
dose: 1.56 mg/kg/injection, schedule: Q01DX009 (ip), vehicle: saline
  T/C: 103 % of control and 109 % of control
dose: 3.12 mg/kg/injection, schedule: Q01DX009 (ip), vehicle: saline
  T/C: 100 % of control and 89 % of control
dose: 6.25 mg/kg/injection, schedule: Q01DX009 (ip), vehicle: saline
  T/C: 87 % of control

## CC1(C(=O)O)CCCC2(C)C3CC(=O)OC3(CC(=O)O)CCC12 (stereo not given)
dose: 7.5 mg/kg/injection, schedule: Q01DX009 (ip), vehicle: saline + alcohol
  T/C: 91 % of control
dose: 15.0 mg/kg/injection, schedule: Q01DX009 (ip), vehicle: saline + alcohol
  T/C: 98 % of control
dose: 30.0 mg/kg/injection, schedule: Q01DX009 (ip), vehicle: saline + alcohol
  T/C: 103 % of control

## COc1cccc2c1C(=O)c1c(O)c3c(c(O)c1C2=O)C[C@@](O)(C(C)=O)C[C@@H]3OC1CC(N)C(OC2CC(N)C(OC)C(C)O2)C(C)O1 (stereo not given in full)
dose: 3.13 mg/kg/injection, schedule: Q04DX003 (ip), vehicle: water
  T/C: 110 % of control and 115 % of control
dose: 6.25 mg/kg/injection, schedule: Q04DX003 (ip), vehicle: water
  T/C: 119 % of control and 123 % of control
dose: 50.0 mg/kg/injection, schedule: Q04DX003 (ip), vehicle: water
  T/C: 112 % of control

## CCN(CC)/C(N)=N/O
dose: 2.5 mg/kg/injection, schedule: Q01DX009 (ip), vehicle: saline
  T/C: 95 % of control
dose: 5.0 mg/kg/injection, schedule: Q01DX009 (ip), vehicle: saline
  T/C: 104 % of control
dose: 10.0 mg/kg/injection, schedule: Q01DX009 (ip), vehicle: saline
  T/C: 102 % of control

## N#CCC(O)(/C=C/c1ccccc1)c1ccccc1 (stereo not given)
dose: 100.0 mg/kg/injection, schedule: Q01DX009 (ip), vehicle: saline sonified
  T/C: 91 % of control
dose: 200.0 mg/kg/injection, schedule: Q01DX009 (ip), vehicle: saline sonified
  T/C: 86 % of control
dose: 400.0 mg/kg/injection, schedule: Q01DX009 (ip), vehicle: saline sonified
  T/C: 95 % of control

## O=C(O)c1cccc2c1C1CCC2c2cccc(C(=O)O)c21
dose: 100.0 mg/kg/injection, schedule: Q04DX003 (ip), vehicle: Klucel (hydroxypropylcellulose) (HPC)
  T/C: 108 % of control
dose: 200.0 mg/kg/injection, schedule: Q04DX003 (ip), vehicle: Klucel (hydroxypropylcellulose) (HPC)
  T/C: 107 % of control
dose: 400.0 mg/kg/injection, schedule: Q04DX003 (ip), vehicle: Klucel (hydroxypropylcellulose) (HPC)
  T/C: 106 % of control

## CCCOC(=O)Nc1ccc2nc(N(C)C)sc2c1
dose: 50.0 mg/kg/injection, schedule: Q01DX009 (ip), vehicle: suspension in saline
  T/C: 99 % of control
dose: 100.0 mg/kg/injection, schedule: Q01DX009 (ip), vehicle: suspension in saline
  T/C: 97 % of control
dose: 200.0 mg/kg/injection, schedule: Q01DX009 (ip), vehicle: suspension in saline
  T/C: 102 % of control

## CCOC(=O)Nc1cc(Cl)c2nnn(C(=O)OCC)c2n1
dose: 6.25 mg/kg/injection, schedule: Q01DX009 (ip), vehicle: other
  T/C: 105 % of control
dose: 11.0 mg/kg/injection, schedule: Q01DX009 (ip), vehicle: other
  T/C: 103 % of control
dose: 12.5 mg/kg/injection, schedule: Q01DX009 (ip), vehicle: other
  T/C: 115 % of control
dose: 16.5 mg/kg/injection, schedule: Q01DX009 (ip), vehicle: other
  T/C: 106 % of control
dose: 25.0 mg/kg/injection, schedule: Q01DX009 (ip), vehicle: other
  T/C: 106 % of control
dose: 37.5 mg/kg/injection, schedule: Q01DX009 (ip), vehicle: other
  T/C: 112 % of control
dose: 50.0 mg/kg/injection, schedule: Q01DX009 (ip), vehicle: other
  T/C: 122 % of control
dose: 100.0 mg/kg/injection, schedule: Q01DX009 (ip), vehicle: other
  T/C: 115 % of control

## C=C1CCC2(C)C(O)CC3(C)C(CCC4C5(C)CCC(OC(C)=O)C(C)(C)C5CCC43C)C2C1C (stereo not given)
dose: 1.0 mg/kg/injection, schedule: Q01DX009 (ip), vehicle: alcohol
  T/C: 107 % of control
dose: 2.0 mg/kg/injection, schedule: Q01DX009 (ip), vehicle: alcohol
  T/C: 105 % of control
dose: 4.0 mg/kg/injection, schedule: Q01DX009 (ip), vehicle: alcohol
  T/C: 115 % of control

## BrCCc1cc(Br)c(CCBr)cc1Br
[5]
  T/C: 97 % of control
[6]
  T/C: 97 % of control
[7]
  T/C: 107 % of control

## CS(=O)(=O)OCCN(CCOS(C)(=O)=O)c1ccc(N=Nc2ccccc2)cc1
dose: 12.5 mg/kg/injection, schedule: Q01DX009 (ip), vehicle: saline with Tween-80
  T/C: 156 % of control and 176 % of control
dose: 25.0 mg/kg/injection, schedule: Q01DX009 (ip), vehicle: saline with Tween-80
  T/C: 160 % of control

## CCC1c2ccccc2[C@H]2C(c3ccccc3)=NN(c3ccccc3)[C@H]2N1CC (stereo not given in full)
dose: 50.0 mg/kg/injection, schedule: Q01DX005 (ip), vehicle: saline with Tween-80
  T/C: 100 % of control
dose: 100.0 mg/kg/injection, schedule: Q01DX005 (ip), vehicle: saline with Tween-80
  T/C: 92 % of control
dose: 200.0 mg/kg/injection, schedule: Q01DX005 (ip), vehicle: saline with Tween-80
  T/C: 90 % of control

## Cc1ccc(S(=O)(=O)N/N=C/C(C)(c2ccccc2)c2ccccc2)cc1
dose: 25.0 mg/kg/injection, schedule: Q01DX009 (ip), vehicle: saline
  T/C: 92 % of control
dose: 50.0 mg/kg/injection, schedule: Q01DX009 (ip), vehicle: saline
  T/C: 99 % of control and 90 % of control
dose: 100.0 mg/kg/injection, schedule: Q01DX009 (ip), vehicle: saline
  T/C: 99 % of control and 94 % of control
dose: 200.0 mg/kg/injection, schedule: Q01DX009 (ip), vehicle: saline
  T/C: 97 % of control

Source: PubChem BioAssay AID330 (DTP/NCI, 2004)
